Measured values: ChEMBL document CHEMBL1201862, “PubChem BioAssay data set” (2004)
One block for each compound: values may come before it. Activity calls are given as the source filed them.

Experiments:
[1] = target: T1, Polyadenylate-binding protein 1 (Homo sapiens, UniProt P11940); assay: blockers of PABP interaction with poly(A) – biochemical, fluorescence polarization, […] (AID 2014)
[2] = target: Eukaryotic translation initiation factor 4H (Homo sapiens, UniProt Q15056); assay: eIF4H binding inhibition – biochemical, uHTS, fluorescence polarization, translation initiation inhibitor project, primary screen (AID 2012)
Cytochrome P450 2D6 = Cytochrome P450 2D6 (Homo sapiens, UniProt P10635); assay: qHTS Assay for Inhibitors and Substrates of Cytochrome P450 2D6. [Related pubchem assays: 410 ]; format: ADME; conditions: read-out: Potency
Sequence of Cytochrome P450 2D6 (P10635 whole entry): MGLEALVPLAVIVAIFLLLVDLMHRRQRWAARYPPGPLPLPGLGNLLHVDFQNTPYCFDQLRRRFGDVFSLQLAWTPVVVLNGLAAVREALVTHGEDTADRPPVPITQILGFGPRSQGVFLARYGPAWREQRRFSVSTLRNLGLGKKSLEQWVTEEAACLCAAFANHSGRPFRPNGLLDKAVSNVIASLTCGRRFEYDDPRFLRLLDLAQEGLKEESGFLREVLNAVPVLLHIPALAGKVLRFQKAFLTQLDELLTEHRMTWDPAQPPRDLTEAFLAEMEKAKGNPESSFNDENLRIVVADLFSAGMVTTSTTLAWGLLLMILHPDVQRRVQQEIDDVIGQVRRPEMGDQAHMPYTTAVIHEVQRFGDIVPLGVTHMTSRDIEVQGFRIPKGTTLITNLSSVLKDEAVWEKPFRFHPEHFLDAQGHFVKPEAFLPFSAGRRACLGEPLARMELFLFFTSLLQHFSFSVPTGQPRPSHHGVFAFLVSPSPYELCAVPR

[3] = target: Acyl-homoserine lactone acylase PvdQ (Pseudomonas aeruginosa (strain LESB58), UniProt Q9I194); assay: PvdQ acylase enzyme activity blockers – biochemical, fluorescence, plate reader and imaging, cherry-picks, dose response (AID 493231)
Sequence of Acyl-homoserine lactone acylase PvdQ (Q9I194 24-193 limits assumed): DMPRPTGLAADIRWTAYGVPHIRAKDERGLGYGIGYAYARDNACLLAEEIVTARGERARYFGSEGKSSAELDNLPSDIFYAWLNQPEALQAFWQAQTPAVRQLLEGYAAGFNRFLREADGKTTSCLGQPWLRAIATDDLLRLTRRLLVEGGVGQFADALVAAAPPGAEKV
Sequence of Acyl-homoserine lactone acylase PvdQ (Q9I194 217-762 limits assumed): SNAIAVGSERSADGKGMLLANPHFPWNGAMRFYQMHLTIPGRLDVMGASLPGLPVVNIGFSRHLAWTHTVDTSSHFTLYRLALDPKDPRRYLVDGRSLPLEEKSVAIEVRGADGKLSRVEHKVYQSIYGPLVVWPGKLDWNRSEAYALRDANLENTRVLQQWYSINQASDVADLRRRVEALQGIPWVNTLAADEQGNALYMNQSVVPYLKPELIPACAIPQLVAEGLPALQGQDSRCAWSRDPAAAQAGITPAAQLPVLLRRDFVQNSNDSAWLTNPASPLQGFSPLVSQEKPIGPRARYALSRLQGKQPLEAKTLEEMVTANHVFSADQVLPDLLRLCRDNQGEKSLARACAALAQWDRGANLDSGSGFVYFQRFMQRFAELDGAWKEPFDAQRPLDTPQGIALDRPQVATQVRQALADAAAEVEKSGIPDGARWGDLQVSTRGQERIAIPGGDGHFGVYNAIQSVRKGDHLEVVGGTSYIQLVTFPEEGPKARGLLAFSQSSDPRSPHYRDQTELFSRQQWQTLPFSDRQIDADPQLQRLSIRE

Protein skinhead-1 = target: T2, Protein skinhead-1 (Caenorhabditis elegans, UniProt P34707); format: functional
T2 sequence (P34707 whole entry): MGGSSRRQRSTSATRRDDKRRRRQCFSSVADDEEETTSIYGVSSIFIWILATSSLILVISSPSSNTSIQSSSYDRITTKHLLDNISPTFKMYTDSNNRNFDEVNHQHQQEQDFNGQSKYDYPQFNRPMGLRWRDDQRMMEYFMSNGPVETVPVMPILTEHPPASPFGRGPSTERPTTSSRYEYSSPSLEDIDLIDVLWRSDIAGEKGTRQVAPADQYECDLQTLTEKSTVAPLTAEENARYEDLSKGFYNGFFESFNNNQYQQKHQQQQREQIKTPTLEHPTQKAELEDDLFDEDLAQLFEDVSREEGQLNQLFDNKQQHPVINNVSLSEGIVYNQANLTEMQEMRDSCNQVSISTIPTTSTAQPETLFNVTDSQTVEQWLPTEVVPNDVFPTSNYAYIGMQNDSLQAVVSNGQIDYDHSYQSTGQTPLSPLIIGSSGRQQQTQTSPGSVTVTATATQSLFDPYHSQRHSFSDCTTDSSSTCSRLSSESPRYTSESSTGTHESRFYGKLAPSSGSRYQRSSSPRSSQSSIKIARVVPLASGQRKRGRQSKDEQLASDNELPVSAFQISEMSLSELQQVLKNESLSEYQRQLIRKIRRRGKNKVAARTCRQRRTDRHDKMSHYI

[4] = viability loss in THP-1 monocytes – THP-1 cells, cytotoxicity control for Vif-APOBEC3G degradation inhibitor project, dose response (AID 1117359); format: functional; conditions: THP-1
[5] = target: Likely tRNA 2'-phosphotransferase (Candida albicans (strain SC5314 / ATCC MYA-2876) (Yeast), UniProt Q5A7N4); assay: inhibition of Candida TPT1 enzyme activity – biochemical, fluorescence polarization, dose response (AID 2160)
Sequence of Likely tRNA 2'-phosphotransferase (Q5A7N4 whole entry): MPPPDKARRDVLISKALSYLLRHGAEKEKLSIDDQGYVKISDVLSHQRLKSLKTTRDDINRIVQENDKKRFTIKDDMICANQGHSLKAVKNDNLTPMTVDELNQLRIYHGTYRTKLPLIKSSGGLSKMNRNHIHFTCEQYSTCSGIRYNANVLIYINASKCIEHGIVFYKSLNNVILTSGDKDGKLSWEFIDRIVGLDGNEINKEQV

[6] = target: Glutathione-S-transferase (Schistosoma japonicum, UniProt Q26513); assay: GST-antibody interaction or FRET quenching – biochemical, TR-FRET, artefact control for Vif-APOBEC3G degradation inhibitor project, dose response (AID 1117362); format: functional
Sequence of Glutathione-S-transferase (Q26513 whole entry): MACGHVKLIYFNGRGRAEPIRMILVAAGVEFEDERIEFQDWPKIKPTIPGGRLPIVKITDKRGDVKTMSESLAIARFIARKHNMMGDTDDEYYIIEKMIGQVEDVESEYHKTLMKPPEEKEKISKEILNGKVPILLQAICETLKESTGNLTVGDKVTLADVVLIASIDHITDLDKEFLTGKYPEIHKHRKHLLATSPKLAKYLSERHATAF

[7] = target: Guanyl-specific ribonuclease T1 (Aspergillus oryzae (strain ATCC 42149 / RIB 40), UniProt P00651); assay: inhibition of ribonuclease T1 activity – biochemical, fluorescence polarization, 1536-well, counter-screen for TPT1 inhibitor project, dose response (AID 2167)
Sequence of Guanyl-specific ribonuclease T1 (P00651 whole entry, the tested form may be a part): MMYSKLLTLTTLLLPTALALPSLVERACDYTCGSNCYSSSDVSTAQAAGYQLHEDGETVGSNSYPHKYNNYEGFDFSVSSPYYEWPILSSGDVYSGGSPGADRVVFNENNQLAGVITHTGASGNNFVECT

[8] = target: T1, Polyadenylate-binding protein 1; assay: MLLE domain peptide-binding blockers, IC50 – biochemical, fluorescence polarization, FITC-PAM2 peptide, dose response (AID 602259); format: functional; conditions: read-out: IC50_Mean
[9] = target: T1, Polyadenylate-binding protein 1; assay: MLLE binding blockers, Cy5 peptide tracer – biochemical, fluorescence polarization, Cy5-PAM2 peptide, secondary, miRNA deadenylation inhibitor project, dose response (AID 602260); format: functional; conditions: read-out: IC50_Mean
[10] = target: T3, Zinc finger protein mex-5 (Caenorhabditis elegans, UniProt Q9XUB2); assay: potency of MEX-5 RNA-binding blockers – biochemical, C. elegans, fluorescence polarization, dose response (AID 1960)
T3 sequence (Q9XUB2 whole entry): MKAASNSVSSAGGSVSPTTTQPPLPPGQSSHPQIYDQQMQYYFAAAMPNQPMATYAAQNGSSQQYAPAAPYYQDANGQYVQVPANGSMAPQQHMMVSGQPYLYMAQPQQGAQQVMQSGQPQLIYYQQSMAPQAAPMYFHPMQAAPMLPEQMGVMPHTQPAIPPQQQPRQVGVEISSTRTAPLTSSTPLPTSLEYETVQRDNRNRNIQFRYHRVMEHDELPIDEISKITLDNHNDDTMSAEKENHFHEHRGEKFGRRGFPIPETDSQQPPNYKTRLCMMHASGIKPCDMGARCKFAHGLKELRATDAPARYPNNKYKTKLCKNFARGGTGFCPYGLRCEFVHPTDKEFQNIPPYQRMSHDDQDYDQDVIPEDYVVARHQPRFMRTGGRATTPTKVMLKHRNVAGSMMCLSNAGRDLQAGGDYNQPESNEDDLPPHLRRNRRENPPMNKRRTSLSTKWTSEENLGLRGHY

[11] = target: T4, RNA-binding protein pos-1 (Caenorhabditis elegans, UniProt G5EF15); assay: disruptors of C. elegans POS-1 RNA interaction – biochemical, fluorescence polarization, dose response (AID 1964);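 note: purified POS-1 fused to maltose binding protein made in E. coli; potency of compounds blocking POS-1 binding to fluorescent RNA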
T4 sequence (G5EF15 whole entry): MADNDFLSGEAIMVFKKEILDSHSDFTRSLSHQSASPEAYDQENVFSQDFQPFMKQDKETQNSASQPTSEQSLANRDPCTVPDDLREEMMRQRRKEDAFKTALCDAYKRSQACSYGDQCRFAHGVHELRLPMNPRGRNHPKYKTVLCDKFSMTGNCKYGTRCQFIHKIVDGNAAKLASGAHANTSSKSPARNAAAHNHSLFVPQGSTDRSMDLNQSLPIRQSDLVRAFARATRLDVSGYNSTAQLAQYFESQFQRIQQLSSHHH

[12] = target: Peroxisome proliferator-activated receptor gamma/Nuclear receptor corepressor 2 (Homo sapiens, UniProt P37231+Q9Y618); format: functional
[13] = target: Photoreceptor-specific nuclear receptor (Homo sapiens, UniProt Q9Y5X4); format: functional;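 note: potency for compounds that break the NR2E3 corepressor complex and count as activators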
Sequence of Photoreceptor-specific nuclear receptor (Q9Y5X4 whole entry): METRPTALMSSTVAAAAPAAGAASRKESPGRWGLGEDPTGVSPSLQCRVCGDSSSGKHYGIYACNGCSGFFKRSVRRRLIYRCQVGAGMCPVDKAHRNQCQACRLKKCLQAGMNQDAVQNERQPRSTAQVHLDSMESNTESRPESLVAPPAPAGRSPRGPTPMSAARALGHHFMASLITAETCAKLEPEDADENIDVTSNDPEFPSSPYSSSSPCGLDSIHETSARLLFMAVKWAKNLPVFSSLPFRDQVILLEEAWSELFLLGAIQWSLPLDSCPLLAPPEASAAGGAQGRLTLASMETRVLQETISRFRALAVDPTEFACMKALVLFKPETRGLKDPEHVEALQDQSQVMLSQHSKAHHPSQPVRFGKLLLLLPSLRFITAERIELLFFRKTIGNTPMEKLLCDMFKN

T1 sequence (P11940 whole entry): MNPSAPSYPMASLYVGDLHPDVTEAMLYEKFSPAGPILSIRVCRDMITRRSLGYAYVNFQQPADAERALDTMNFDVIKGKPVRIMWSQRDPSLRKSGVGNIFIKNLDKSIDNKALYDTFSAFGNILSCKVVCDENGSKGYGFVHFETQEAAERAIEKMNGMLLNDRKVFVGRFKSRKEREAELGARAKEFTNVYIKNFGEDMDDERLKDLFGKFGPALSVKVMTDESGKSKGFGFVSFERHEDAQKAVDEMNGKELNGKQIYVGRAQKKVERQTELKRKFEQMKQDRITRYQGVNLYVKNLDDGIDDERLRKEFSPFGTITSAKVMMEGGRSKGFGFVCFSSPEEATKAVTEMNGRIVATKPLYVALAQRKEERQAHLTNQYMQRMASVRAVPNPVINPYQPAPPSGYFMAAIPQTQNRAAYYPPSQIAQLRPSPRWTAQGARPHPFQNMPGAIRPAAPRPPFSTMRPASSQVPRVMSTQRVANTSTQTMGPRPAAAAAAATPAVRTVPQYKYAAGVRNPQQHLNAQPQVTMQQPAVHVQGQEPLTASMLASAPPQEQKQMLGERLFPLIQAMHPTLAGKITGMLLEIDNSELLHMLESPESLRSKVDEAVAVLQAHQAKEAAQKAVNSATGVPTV

IC50 [1]: 5.41 µM (active) | IC50 [2]: 5.43 µM (active)
SMILES: COc1cc(C)cc(C(=O)O)c1C1=C(O)C(=O)c2c(O)cccc2C1=O

AC50 (Cytochrome P450 2D6): 39.8 µM (inconclusive)
SMILES: COc1ccccc1CNc1cc(-c2ccccc2C(F)(F)F)ncn1

SMILES: Clc1ccc(-c2nnc(-c3ccco3)o2)cc1
AC50 [3]: 24.3 µM (active) | IC50 (Protein skinhead-1): 17.2 µM (active)

IC50 [5]: 10.7 µM (not active) | IC50 [6]: > 100 µM (active) | IC50 [7]: 7.8 µM (active)
SMILES: CCN1CCN(c2cc(N3CCN(C(=O)c4ccco4)CC3)c3c4c(onc24)-c2ccccc2C3=O)CC1
CC50 [4]: > 40 µM (active)

IC50 [8]: 54.7 µM (inactive) | IC50 [9]: > 66 µM (inactive) | EC50 [10]: 16.6 µM (active) | EC50 [11]: 23.6 µM (active) | IC50 [12]: 0.196 µM (active) | IC50 [13]: 0.186 µM (active)
SMILES: COC(=O)c1cc2n3ccccc3c(C)c(-c3ccccc3)c-2c1C(=O)OC
